Source: ChEMBL document CHEMBL4418298, “Cyp8b1 and uses thereof in therapeutic and diagnostic methods” (2014)

Target: T1, 7-alpha-hydroxycholest-4-en-3-one 12-alpha-hydroxylase (Homo sapiens, UniProt Q9UNU6)
T1 sequence (Q9UNU6 whole entry): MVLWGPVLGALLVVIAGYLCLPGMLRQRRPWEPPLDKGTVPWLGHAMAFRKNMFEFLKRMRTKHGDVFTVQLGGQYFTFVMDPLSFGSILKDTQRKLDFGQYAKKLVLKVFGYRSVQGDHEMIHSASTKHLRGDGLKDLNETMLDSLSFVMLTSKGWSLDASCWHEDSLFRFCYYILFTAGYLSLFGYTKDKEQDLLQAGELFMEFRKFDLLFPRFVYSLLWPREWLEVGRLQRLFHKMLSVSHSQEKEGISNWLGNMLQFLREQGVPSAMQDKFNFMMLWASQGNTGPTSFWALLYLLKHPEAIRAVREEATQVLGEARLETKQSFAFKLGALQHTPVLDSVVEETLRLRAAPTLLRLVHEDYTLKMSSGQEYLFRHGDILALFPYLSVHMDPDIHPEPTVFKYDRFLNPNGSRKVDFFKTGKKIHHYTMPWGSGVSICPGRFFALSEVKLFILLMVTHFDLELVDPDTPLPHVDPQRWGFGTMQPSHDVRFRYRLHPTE
Test: Inhibition of CYP8B1 in human liver microsomes using D7-7alpha-hydroxy-4-cholesten-3-one as substrate preincubated for 20 mins followed by substrate addition in presence of NADPH by UPLC-ESI-MS/MS analysis

| Compound | IC50 [nM] |
| --- | --- |
| CC(C)CCC[C@@H](C)[C@H]1CC[C@H]2[C@@H]3[C@H](O)C[C@@H]4C[C@H](O)CC[C@]4(C)[C@H]3C[C@H](O)[C@]12C | 7600 |
| CCC(C)n1ncn(-c2ccc(N3CCN(c4ccc(OC[C@H]5CO[C@](Cn6cncn6)(c6ccc(Cl)cc6Cl)O5)cc4)CC3)cc2)c1=O (stereo partly drawn) [ITRACONAZOLE] | 4700 |
| CC[C@@H]([C@H](C)O)n1ncn(-c2ccc(N3CCN(c4ccc(OC[C@@H]5CO[C@@](Cn6cncn6)(c6ccc(F)cc6F)C5)cc4)CC3)cc2)c1=O [POSACONAZOLE] | 3800 |
| N[C@@H]1C[C@H]1c1ccccc1.N[C@H]1C[C@@H]1c1ccccc1 (racemic) [TRANYLCYPROMINE] | 7800 |
| CC(=O)N1CCN(c2ccc(OC[C@H]3CO[C@](Cn4ccnc4)(c4ccc(Cl)cc4Cl)O3)cc2)CC1 [KETOCONAZOLE] | 2200 |
| Clc1ccc(COC(Cn2ccnc2)c2ccc(Cl)cc2Cl)c(Cl)c1 (stereo not drawn) [MICONAZOLE] | 1500 |
| Clc1ccccc1C(c1ccccc1)(c1ccccc1)n1ccnc1 [CLOTRIMAZOLE] | 800 |
| Clc1ccc(COC(Cn2ccnc2)c2ccc(Cl)cc2Cl)cc1 (stereo not drawn) [ECONAZOLE] | 310 |
